The record followed here is ChEMBL document CHEMBL1149927, “Synthesis of 7-methoxy-2-(1,3-dithiolan-2-ylidene)cephem sulphones. A new series of human leukocyte elastase inhibitors” (Bioorg Med Chem Lett, 1996).

The assay has as its target T1, Neutrophil elastase (Homo sapiens, UniProt P08246).
T1 sequence (P08246 whole entry): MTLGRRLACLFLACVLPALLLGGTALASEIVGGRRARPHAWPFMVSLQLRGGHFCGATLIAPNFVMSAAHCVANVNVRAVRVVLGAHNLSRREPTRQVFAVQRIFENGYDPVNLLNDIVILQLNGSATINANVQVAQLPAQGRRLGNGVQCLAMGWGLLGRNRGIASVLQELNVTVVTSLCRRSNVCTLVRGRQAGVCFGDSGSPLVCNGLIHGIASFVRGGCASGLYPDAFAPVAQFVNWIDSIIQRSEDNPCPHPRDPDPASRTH
Nature of the assay: Inhibitory activity against human sputum elastase (HSE).
Turning to `CO[C@H]1C(=O)N2C(C(=O)OC(C)(C)C)=C(C)C(=C(SC)SC)S(=O)(=O)C12` (stereo not given in full), the IC50 came out at 74 nM.
Consider `CO[C@H]1C(=O)N2C(C(=O)OC(C)(C)C)=C(C)C(=C3SCC(OC(C)=O)CS3)S(=O)(=O)C12` (stereo not given in full), for which it took 320 nM to reach half-maximal inhibition (IC50).
For the molecule `CO[C@H]1C(=O)N2C(C(=O)OC(C)(C)C)=C(C)CS(=O)(=O)C12` (stereo not given in full), the IC50 is 1800 nM.
As for `CO[C@H]1C(=O)N2C(C(=O)OC(C)(C)C)=C(C)C(=C3SCCS3)S(=O)(=O)C12` (stereo not given in full), the IC50 was 380 nM.
The figure for `CO[C@H]1C(=O)N2C(C(=O)OC(C)(C)C)=C(C)C(=C3SCC(O)CS3)S(=O)(=O)C12` (stereo not given in full) is 330 nM.
